From patent publication US8188078B2 (Sanofi-Aventis, priority 2007, dated 2012) come the findings set out here.

One data set deals with T1, c-MET (Homo sapiens, UniProt P08581).
T1 construct: The recombinant DNA His-Tev-MET (956-1390) in pFastBac(Invitrogen); His (N, cleaved yes); Tev (TEV protease site) (N, cleaved yes); made in house; host or cells: SF21 insect cells (baculovirus, pFastBac)
Put plainly: Test A: HTRF Met test in 96-well format. The class given is biochemical. A digest of the protocol:
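The kinase was the Sf21-expressed MET cytoplasmic domain (956–1390), His tag removed, used at 5 nM with compound (0.17 nM–10 µM, 3% DMSO) in 10 mM MOPS pH 7.4. Poly-GAT 1 µg/ml, 10 µM ATP and 5 mM MgCl2 reacted 10 min at RT. After an EDTA stop, phosphotyrosine was detected by HTRF (665/620 ratio).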
On the technique in general: TR-FRET usually uses a lanthanide donor and a delayed reading to cut background.

For another data set, the target named is RON (Homo sapiens, UniProt Q04912). Nature of the data set: Test B: HTRF RON test in 96-well format. The class given is biochemical. How it is done:
B) HTRF RON Test in 96-Well Format
The inhibitory potency (IC50) of molecules on the enzymatic activity of kinase phosphorylation RON is determined by the HTRF technique. The activity of the kinase is evaluated by measuring the phosphorylation of the substrate polyGAT by the enzyme, in the presence of ATP.
Final RON 5 nM is incubated in the presence of the molecule to be tested (for a final concentration range from 0.17 nM to 10 μM, final DMSO 3%) in buffer MOPS 10 mM pH 7, DTT 1 mM, Tween 20 0.01%. This pre-incubation is performed in 96 half-well black plates in a volume of 35 μl for 30 minutes at room temperature.
The reaction is initiated by adding 15 μl of a mixture of substrates constituted of biotinylated poly-(GAT) 1 μg/ml final and ATP 10 μM final in the presence of MgCl2 5 mM final for a final volume of 50 μl.
After incubation for 30 min at room temperature, the reaction is stopped with 30 μl of a mixture of Hepes 100 mM final pH 7, potassium fluoride 400 mM final, BSA 0.1% and EDTA 133 mM in the presence of 80 ng per well of antibodies Streptavidin ITS-XL665 Cis-Bio Int. and 18 ng per well of anti-phosphotyrosine PT66 labelled with europium cryptate.
After incubation for 2 hours at room temperature, reading is carried out at 2 wavelengths 620 nm and 665 nm in a Genios TECAN reader for the TRACE/HTRF technique and the percentage inhibition is calculated according to the 665/620 ratios.

Another data set relates to MKN45 cells. Nature of the data set: Test D: cellular proliferation by 14C-thymidine pulse, MKN45 cells. Format: cell-based. The settings on record: Homo sapiens, MKN-45, cellular proliferation by 14C-thymidine pulse; cell line not stated (HCT116 or MKN45). A digest of the protocol: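 MKN45 cells (7500/well, RPMI + 10% foetal calf serum) treated with 10 concentrations, 10000 to 0.3 nM in 3-fold steps, duplicate. 14C-thymidine (0.1 μCi/well) added at 72 h; incorporation counted after 24 h pulse, 96 h total treatment.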

RON, sequence (Q04912 25-1400): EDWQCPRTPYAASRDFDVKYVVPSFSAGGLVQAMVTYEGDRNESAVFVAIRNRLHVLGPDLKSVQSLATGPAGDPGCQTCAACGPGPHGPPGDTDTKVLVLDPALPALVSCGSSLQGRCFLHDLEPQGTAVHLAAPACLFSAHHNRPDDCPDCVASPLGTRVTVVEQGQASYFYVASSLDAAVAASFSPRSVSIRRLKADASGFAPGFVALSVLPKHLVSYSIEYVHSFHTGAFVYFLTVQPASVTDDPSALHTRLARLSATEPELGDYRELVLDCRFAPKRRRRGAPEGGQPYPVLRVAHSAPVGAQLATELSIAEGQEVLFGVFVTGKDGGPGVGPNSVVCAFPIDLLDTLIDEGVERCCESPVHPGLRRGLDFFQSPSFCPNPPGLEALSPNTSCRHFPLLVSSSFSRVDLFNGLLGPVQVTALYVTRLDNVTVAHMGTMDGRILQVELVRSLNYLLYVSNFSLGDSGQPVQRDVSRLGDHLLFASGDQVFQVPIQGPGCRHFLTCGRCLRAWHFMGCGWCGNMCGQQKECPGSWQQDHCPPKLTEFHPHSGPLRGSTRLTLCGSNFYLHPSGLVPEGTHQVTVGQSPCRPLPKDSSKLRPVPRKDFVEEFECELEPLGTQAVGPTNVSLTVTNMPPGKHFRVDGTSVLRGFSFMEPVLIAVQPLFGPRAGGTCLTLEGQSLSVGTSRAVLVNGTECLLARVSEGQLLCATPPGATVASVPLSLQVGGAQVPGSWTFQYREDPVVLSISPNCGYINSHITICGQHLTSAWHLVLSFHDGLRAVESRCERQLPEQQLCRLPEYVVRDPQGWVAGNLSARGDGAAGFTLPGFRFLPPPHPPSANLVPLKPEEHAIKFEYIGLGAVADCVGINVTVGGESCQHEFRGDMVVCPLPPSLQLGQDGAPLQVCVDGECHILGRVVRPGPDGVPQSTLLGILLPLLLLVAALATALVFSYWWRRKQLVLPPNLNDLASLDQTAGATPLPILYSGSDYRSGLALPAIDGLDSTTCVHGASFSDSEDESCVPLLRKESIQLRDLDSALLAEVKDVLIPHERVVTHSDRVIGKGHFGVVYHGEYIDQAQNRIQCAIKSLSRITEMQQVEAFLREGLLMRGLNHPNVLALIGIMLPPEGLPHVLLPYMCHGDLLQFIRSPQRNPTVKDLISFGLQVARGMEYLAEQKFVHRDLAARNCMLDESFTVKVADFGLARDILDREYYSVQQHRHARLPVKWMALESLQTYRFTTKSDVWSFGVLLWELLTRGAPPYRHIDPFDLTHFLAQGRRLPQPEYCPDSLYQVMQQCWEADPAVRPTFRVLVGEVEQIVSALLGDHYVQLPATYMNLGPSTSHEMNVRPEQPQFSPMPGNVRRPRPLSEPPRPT
T1 sequence (P08581 956-1390): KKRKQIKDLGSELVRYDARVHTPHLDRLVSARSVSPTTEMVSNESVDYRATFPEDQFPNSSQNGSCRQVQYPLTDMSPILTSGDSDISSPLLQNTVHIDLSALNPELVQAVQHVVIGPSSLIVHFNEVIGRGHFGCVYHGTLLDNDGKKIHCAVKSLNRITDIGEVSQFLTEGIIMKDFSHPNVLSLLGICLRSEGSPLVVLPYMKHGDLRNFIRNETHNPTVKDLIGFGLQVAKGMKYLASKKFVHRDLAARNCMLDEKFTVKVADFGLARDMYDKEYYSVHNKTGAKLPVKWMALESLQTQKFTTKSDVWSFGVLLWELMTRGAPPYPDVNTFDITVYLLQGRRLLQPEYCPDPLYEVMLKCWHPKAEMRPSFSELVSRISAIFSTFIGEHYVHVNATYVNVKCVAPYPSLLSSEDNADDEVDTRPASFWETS

`CC(Oc1cc2sc(NC(=O)NCCN3CCCCC3)nc2cc1F)c1c(Cl)ccc(F)c1Cl` (stereo not shown) [Example 80, 1-{6-[1-(2,6-dichloro-3-fluorophenyl)ethoxy]-5-fluoro-1,3-benzothiazol-2-yl}-3-[2-(piperidin-1-yl)ethyl]urea]: the melting point – broadly, the temperature, or range, at which the solid turns liquid – lay within 186 to 195 °C. Also, the IC50 (as a rule, the concentration needed to halve the response being measured) on c-MET was < 100 nM. On RON, this compound registered an IC50 of 500 to 10000 nM. Also, the IC50 in the data set with MKN45 cells was 500 to 10000 nM.
